According to patent US20240373849A1, “INSECT NEUROPEPTIDE ANALOGUES” (THE UNIVERSITY COURT OF THE UNIVERSITY OF GLASGOW, priority 2020, published 2024):
Several values for one entry are separate records, joined by “and”; a condition that tells them apart may be missing. Identical values can stand only once. Square brackets hold non-standard residues; d marks the D form. NMeL = CN[C@@H](CC(C)C)C(=O)O; NMeA = CN[C@@H](C)C(=O)O

How the values were obtained:
[1] = test system: D. suzukii larvae; experiment: Drosophila suzukii larval feeding (Example 9; dose response); format: in vivo; details: for % Lethality ± SEM: Table 6, 10^−5 M, 48 hr and/or 72 h exposure (FIG. 7: AH270/PEGAH270 120 h)
Procedure: Dose response experiments were carried out for AH382, AH383, AH188, data shown for AH382 (a), AH383 (b), AH188 (c, 48 hours). Data are mean % lethality ±SEM for concentrations between 10^−4 M and 10^−7 M (a) AH382, (b) AH383 72 hours treatment; and between 10^−5 M and 10^−9 M (AH188, 3c), 48 hours treatment. The LD50 for AH382, AH383 and AH188 is 10^−6 M.
Further larval feeding assays with D. suzukii larvae were conducted as explained above in example 7. A total of 88 peptides were tested against D. suzukii larvae in 96 well plates at 10^−5 M in a final volume of 200 μl of 0.8% agarose containing 0.09% m-Cresol purple pH marker dye (Sigma) and 5% sucrose (Sigma). Controls contained dH2O (18% lethality) or native Capa-2 peptide (38% lethality) as a ‘sham’ treatment. Each peptide was assayed with a minimum of 7 to maximum 9 late L2/early L3 larvae per well, minimum n=8 wells per peptide concentration (minimum 56 larvae) and a minimum n=12 control wells (minimum 84 larvae) per plate. Larvae were assayed for lethality after 48 hr and/or 72 h exposure at 21° C. using a binocular stereomicroscope and findings recorded. Candidate peptides were also tested between 10^-4 and 10^-7 M (dose response curve).
Candidate peptides for D. suzukii with 70%-90% lethality are indicated below, in Table 6.

[2] = test system: Myzus persicae aphids; experiment: Topical application by spraying, Potter Spray Tower (Example 3); format: in vivo; details: 48 hours post spray
Procedure: Aphids were exposed to test peptides in the absence of additional external stress conditions.
Brassica rapa (Chinese cabbage; Wong Bok) were infested with 30 adult Myzus persicae aphids per plant. Aphids were left at least 2 hours to settle and begin feeding from the host plant.
Potter Spray Tower (Burkard Manufacturing) was ‘primed’ by spraying 1000 μl of liquid coating the inside of the tower. Vehicle spray only (Croda ATPlus UEP 100 LQ-(CQ) 0.1% v/v) was used as a control.
Spray volumes for all solutions were 3000 μl. […] After spraying was completed the plant was allowed to rest on the spray platform for 30 seconds to allow settling of the sprayed chemical.
Post peptide application, each condition was placed into its own individual Bugdorm (Watkins and Doncaster, 44545), to prevent repulsed or displaced aphids moving from one condition to another. Numbers of alive and dead aphids on the plant were counted 48 hours post spray, and the presence of any fresh nymphs noted. Plants were watered prior to spraying but not afterwards to eliminate the possibility of drowning any aphids present or washing off the sprayed liquid.
The vehicle control group was used to determine baseline lethality. Results for neuropeptide analogues were calculated as % lethality in the remaining population after adjustment for the baseline.

[3] = test system: M. persicae; experiment: Feeding of aphids with peptides in artificial diet (Example 1); format: in vivo, Myzus persicae
Procedure: A standard artificial diet for M. persicae was produced as described in Van Emden (2009) and provided the basal diet to which peptides were added for screening purposes. Peptides were diluted individually in the artificial diet to a pre-determined concentration.
Feeding apparatus were constructed using a set-up developed by Sadeghi et al (2009). For this, a piece of Parafilm was stretched over a Plexiglas ring (h=4 cm, Ø=3 cm) and 100 μl of the artificial diet containing the desired neuropeptide analogue was pipette onto the Parafilm membrane. A second piece of Parafilm, stretched to 4 times the original thickness, was stretched over the original layer, sandwiching the artificial diet between two layers of Parafilm. A strip of Parafilm was wrapped around the circumference of the Plexiglas ring, sealing in the diet. A plastic ring (h=1.2 cm, Ø=3.4 cm) was subsequently placed over the Parafilm layer, creating a walled chamber in which to house test aphids in contact with the Parafilm layer containing the artificial diet. Finally, a small Petri dish (h=1 cm, Ø=3.6 cm), modified for ventilation with net cloth, was placed on top of each feeding apparatus to prevent aphid escape.
To obtain aphids for use in experiments, reproducing anholocyclic adults were placed on individual excised leaves of Chinese cabbage at densities of 5 adults per leaf and allowed to reproduce for 24 h. The stem of each excised leaf was held within a 0.5 mL Eppendorf tube containing water via a punctured hole in the Eppendorf lid, and placed individually within a microcage (L=4 cm, Ø=9.5 cm). Following 24h, adults were removed and resultant first instar nymphs (<1 day old and synchronised in age to within 24h) retained. Nymphs were allowed to develop on the Chinese cabbage for 5 days. On day 5, (3rd instar) nymphs were transferred onto the artificial diet containing a neuropeptide analogue at densities of 1 per feeding chamber and monitored daily until death. Aphids were transferred to fresh artificial diet (containing neuropeptide analogue or water control) every 5 days.
The water control group was used to determine baseline lethality. Results for neuropeptide analogues were calculated as % lethality in the remaining population after adjustment for the baseline.

[4] = test system: Drosophila suzukii larvae; experiment: Drosophila suzukii larval feeding (Example 8; peptide screening); format: in vivo; parameters: key to D. suzukii (Sig Diff Grp): A indicates a significant difference in survival compared with control (blank).; B indicates a significant difference in survival compared with scrambled capa1.; C indicates a significant difference in survival compared with scrambled capa2; details: for Feeding D. suzukii, % lethality in population after adjustment for baseline: 10^−5 M, 48 hr exposure; for D. suzukii (Mean% Lethality ± SD) / D. suzukii (Sig Diff Grp): Peptide screening, Table 5; for D. suzukii (Mean% Lethality ± SD): blank control 20.33; for D. suzukii (Sig Diff Grp): difference in survival
Procedure: (§1) First to Fourth generations of peptides were produced with varying structures and tested for CAPA receptor agonist activity, and screened for lethality in vivo against D. suzukii and M. persicae as per methods in example 2 and example 8. The top performing peptides were selected and gave rise to the list of CAPA1 and CAPA2 peptides provided above in Table 1 which were then further tested in the following applied examples.
Peptides were tested at concentrations ranging from [10^−4 M] to [10^−7 M] in a final volume of 200 μl of 0.8% agarose containing 0.09% m-Cresol purple pH marker dye (Sigma) and 5% sucrose (Sigma).
Agarose was melted in dH2O, before addition of sucrose and dye. The agarose/dye solution was then allowed to cool to 60° C. 96 well plates (flat-bottomed 3596 TC-plates; Corning) containing 20 μl volumes of neuropeptide per well were prepared, and 180 μl agarose/dye solution dispensed into each well via a Distriman repetitive micro-pipettor (Gilson). Controls contained 20 μl dH2O as a ‘sham’ treatment with 180 μl of the 0.8% agarose/dye solution. Plates were agitated at 800 rpm, to ensure mixing, at 60° C. (Eppendorf Thermomixer C). Plates were then allowed to cool, and agarose/dye solution solidify, prior to use.
Each peptide was assayed with a minimum of 7 to maximum 9 late L2/early L3 Spotted wing Drosophila, Drosophila suzukii, (feeding) larvae per well, minimum n=8 wells per peptide concentration and a minimum n=12 control wells per plate. The selected larvae were first washed 2× in ice cold Drosophila Schneider's liquid medium (ThermoFisher) before insertion into wells to remove extraneous food. After complete insertion of all larvae the plates were covered with breathable sealing membrane for multi-well plates (Sigma).
Larvae were assayed for lethality after 48 hr exposure at 21° C. and findings recorded. During examination the assay plate was kept on ice, to reduce larval locomotor activity (wandering), and larvae in each well were examined using a binocular stereomicroscope (Zeiss).
The water control group was used to determine baseline lethality. Results for neuropeptide analogues were calculated as % lethality in the remaining population after adjustment for the baseline. Results are shown in Tables 7 and 8 below, and in FIG. 1.

[5] = test system: M. persicae; experiment: Feeding of aphids with peptides in artificial diet (Example 2; peptide screening, honeydew); format: in vivo, Myzus persicae; details: for mean lethality / lethality observed in one sample of 30 insects: M. persicae feeding, 10^−5 M, 120 hours; for lethality observed in one sample of 30 insects: single sample; for M. persicae (% Lethality): Peptide screening, Table 5
From the text: as §1
The aphid feeding protocol was devised according to Sadeghi et al (2009) as explained in example 1. Feeding discs were designed and manufactured as above. A standard sucrose-based artificial diet for M. persicae (30 aphids per chamber, 3 chambers per experiment unless otherwise stated) was produced as described in example 1 (Sadeghi et al, J. Insect Science, 2009) and provided the basal diet to which peptides were added for screening purposes. Peptides were diluted individually in the artificial diet to 10^−5 M. Lethality was scored after up to 120 hours (IRAC guidelines for aphid testing).
Membrane discs were also included to collect ‘honeydew’ secreted by feeding aphids and stained with ninhydrin to observe feeding patterns.
Comparison of purple stain in controls to treated aphids, show there is very little colour on many membranes where peptides were added.
Capa peptides cause mortality in M. persicae via feeding: At 120 hours, AH383 and AH387 peptides induce ˜60% mean (and median) lethality. Although mean lethality is lower with AH270/PEGAH270 (40%), 100% lethality is observed in one sample of 30 insects (AH270); and 90% in at least one sample of each of AH383, AH387 and PEGAH270 (FIG. 3). Note that PEGAH270 is a pegylated form of peptide AH270.

[6] = test system: bumblebees (Bombus terrestris); experiment: Bumblebee acute oral toxicity test; format: in vivo
Procedure: Oral toxicity against bumblebees (Bombus terrestris) was determined as previously described:
OECD (2017), Test No. 247: Bumblebee, Acute Oral Toxicity Test, OECD Guidelines for the Testing of Chemicals, Section 2, OECD Publishing, Paris, https://doi.org/10.1787/9789264284128-en.
Example data are provided for peptides, AH56, AH257, AH259 in Tables 4, 5 below. […]
Data were acquired for: feeding behaviour—weight of liquid consumed pre- and post-treatment; lethality (days).
There was no negative impact on feeding behaviour from capa peptides. Acute bumblebee toxicity was also assessed for other peptide candidates including: AH270, PEG270. Overall, capa peptides are bee safe.

[7] = Table 11, individual bees, peptide 1 × 10 − 5M or Spirotetramat 25 uM, listed as AHPEG270

Substance | Spray Aphid, % lethality in population after adjustment for baseline ([2]; 10^−4 M) [%] | Spray Aphid, % lethality in population after adjustment for baseline ([2]; 10^−5 M) [%] | Feeding Aphid, % lethality in population after adjustment for baseline ([3]; 10^−5 M) [%] | LD50 ([1]; 72 hours treatment) | % Lethality ± SEM [1] | Feeding D. suzukii, % lethality in population after adjustment for baseline [4] [%] | mean lethality [5] [%] | lethality observed in one sample of 30 insects [5] [%] | Feeding Aphid, % lethality in population after adjustment for baseline ([3]; 10^−4 M) [%] | Feeding Aphid, % lethality in population after adjustment for baseline ([3]; 10^−5 M, @72 h) | Feeding Aphid, % lethality in population after adjustment for baseline ([3]; 10^−6 M) [%] | Feeding Aphid, % lethality in population after adjustment for baseline ([3]; 10^−7 M) [%] | D. suzukii (Mean% Lethality ± SD) [4] [%] | D. suzukii (Sig Diff Grp) [4] | M. persicae (% Lethality) [5] [%] | also measured
H-ASGLVAFPRV-NH2 [Capa-2, reference compound] | – | – | – | – | – | – | – | – | – | – | – | – | – | – | – | lethality ([1]; control ('sham') treatment, not baseline adjusted): 38%
H-(Me)L-YAFARV-NH2 (H-[NMeL]YAFARV-NH2; SMILES CN[C@@H](CC(C)C)C(=O)N[C@@H](Cc1ccc(O)cc1)C(=O)N[C@@H](C)C(=O)N[C@@H](Cc1ccccc1)C(=O)N[C@@H](C)C(=O)N[C@@H](CCCNC(=N)N)C(=O)N[C@H](C(N)=O)C(C)C) [AH383] | 42 | 13 | 10 | 10^−6 M | 80 ± 3% | 56 | ~60 | 90 | – | – | – | – | – | – | – | –
PEG-Ahx-LV-(Me)A-FPR-(Me)V-NH2 [PEGAH270, a pegylated form of peptide AH270] | – | – | – | – | 77 ± 4% | – | 40 | 90 | – | – | – | – | – | – | – | Liquid post exposure (weight), Mean ([6]; Table 11, group mean, n=10): 0.8814 g; liquid consumed per day post exposure, Mean ([6]; Table 11, group mean, n=10): 0.2211 g; Liquid post exposure (weight) [6, 7]: 1.5744 g and 0.7150 g and 0.4326 g and 0.2731 g and 1.1763 g and 1.8061 g and 0.5676 g and 1.5696 g and 0.6889 g and 0.0102 g; days alive [6, 7]: 4 days (9×) and 0 (approx 1 hr) days; liquid consumed per day post exposure [6, 7]: 0.3936 g and 0.1788 g and 0.1082 g and 0.0683 g and 0.2941 g and 0.4515 g and 0.1419 g and 0.3924 g and 0.1722 g and 0.0102 g; safety towards B. terrestris in the bumblebee oral toxicity assay ([6]; in vivo, po): safe
H-LY-(Me)A-FARV-NH2 (H-LY[NMeA]FARV-NH2; SMILES CC(C)C[C@H](N)C(=O)N[C@@H](Cc1ccc(O)cc1)C(=O)N(C)[C@@H](C)C(=O)N[C@@H](Cc1ccccc1)C(=O)N[C@@H](C)C(=O)N[C@@H](CCCNC(=N)N)C(=O)N[C@H](C(N)=O)C(C)C) [AH382] | 49 | 10 | 12 | 10^−6 M | 90 + 4% | 43 | – | – | – | – | – | – | – | – | – | –
H-LYAFARV-NH2 [AH188] | 2 | – | 23 | – | 71 ± 6% | 71 | – | – | 23 | 1 (33%@72 h) | 22 | 17 | 70.50 | ABC | 22 | LD50 ([1]; 48 hours treatment): 10^−6 M
H-Ahx-L-(Me)V-AFPRV-NH2 [AH283] | 30 | 20 | 26 | – | – | 43 | – | – | 34 | 12 (51% | 27 | 20 | 42.63 | A | 40 | –
